# Laboratory results reported in patent publication US8993558B2, “Compositions comprising a calcium channel blocker or a calmodulin blocker for use in the removal of hyperplastic skin lesions” (priority 2008, dated 2015).
# Structures can show the parent of a compound that is named as a salt.
# Legend:
# genital warts = experiment: Topical treatment of genital (veneral) warts in patients; type: in vivo, human
# Procedure: (§1) A person applied 0.1 ml of Trifluoperazine Topical Gel 30 mg/ml twice daily topically to several genital warts and a skin tag in the right axillary area.
# A person applied 0.1 ml of Diltiazem supplied in 3 ml syringes with removable caps dissolved at a concentration of 100 mg/ml in an ointment twice daily topically to several genital warts.
# plantar wart = experiment: Topical treatment of plantar warts in patients
# Procedure: The warts were 2-5 mm in diameter. The patient was instructed to apply the cream 2-3 times per day to the three plantar warts, Patient used the medication regularly for approximately 4 weeks.
# A mixture of Diltiazem dissolved at a concentration of 100 mg/ml in an ointment was applied in small amounts directly to a single small 3 mm diameter plantar wart on sole under the 1st metatarsal-phallangeal joint on the left foot of a person. The patient applied the cream to the gauze pad of a bandage and then taped the bandage over the sole of the foot so that the Diltiazem 100 mg/ml ointment was in contact with the wart. The bandage was replaced daily after showering and this was continued for six weeks.
# A person applied 0.1 ml of Trifluoperazine Topical Gel 30 mg/ml twice daily topically to a approximately […] plantar wart that was large enough to make walking painful.
# skin tag = experiment: Treatment of skin tags in patients (injection or topical); type: in vivo, human
# Procedure: A person had multiple skin tags around their neck where they wore a gold necklace. A mixture of Diltiazem dissolved at a concentration of 100 mg/ml in an ointment was given to the patient with instructions to apply the ointment 1-2 times per day in small amounts directly to the skin tags.
# as §1
# callouses = experiment: Topical treatment of callouses in patients; type: in vivo, human
# Procedure: A person had thick painful callouses over the lateral aspect of the 1st metatarsal-phallangeal joint on both feet. A mixture of Diltiazem dissolved at a concentration of 100 mg/ml in an ointment was given to the patient with instructions to apply the ointment 2-3 times per day in small amounts directly to only the callous locate on the 1st metatarsal-phallangeal joint of the left foot, and specifically not to use the ointment on the right foot.
# A recreational tennis player had bilateral thickened calluses over the right and left 5th distal metatarsal head of both feet. These callouses were causing their significant pain and disability when they played tennis. The patient was treated with Trifluoperazine and Felodipine impregnated bandages.
# Initially a water-proof bandage on which the mixture of Trifluoperazine 30 mg/ml Gel was applied to the adsorbent pad of the bandage with the pad being sized to cover the thickest area of the callous over the was right 5th distal metatarsal head. The pad of the waterproof bandage was applied to the callous and patient was instructed to replace the bandage 1-2 times per day with a new Trifluoperazine impregnated bandage after each shower/bath.
# The patient was then given a one month supply of water-proof bandages on which the mixture of Felodipine 100 mg/ml ointment had been applied to the adsorbent pad of the bandage with the pad being sized to cover the thickest area of the callous over the was on the left 5th distal metatarsal head. The pad of the waterproof bandage was applied to the callous and patient was instructed to replaced the bandage 1-2 times per day with a new Felodipine impregnated bandage after each shower/bath.
# psoriatic plaques = experiment: Topical treatment of psoriatic plaques; type: in vivo, human
# keloid [1] = experiment: Topical treatment of keloids in patients; type: in vivo, human; settings: for keloid appearance: Example 17: 100 mg/ml ointment, keloid over mastoid process (Felodipine right, Diltiazem left); for keloid relapse: Example 17: follow up at 6 and 9 months
# Procedure: A person had keloids that had formed over several areas of the donor site scar from a previous hair transplant several years ago over the occipital area of the scalp from mastoid process to mastoid process. The keloids over the mastoid process on right side were initially treated with Felodipine 100 mg/ml ointment. The patient had been given instructions to apply the Felodipine 100 mg/ml ointment several times per day to the right side only and the patient was seen weekly in follow up.
# corn = settings: person
# keloid [2] = experiment: Topical treatment of keloids in patients; type: in vivo, human; settings: Example 17: applied for two weeks twice daily to the donor surgical sites
# [3] = system: outwardly-rectifying chloride channel; settings: 50 microM; cited from earlier work
# P-glycoprotein = settings: hepatocyte canalicular membrane; cited from earlier work
# [4] = Example 18: Topical Gel 30 mg/ml, four weeks of use, follow up a month later
# [5] = Example 13: 0.1 ml Topical Gel 30 mg/ml twice daily, three weeks
structure (smiles),measurement,setting,value
"COc1ccc([C@@H]2Sc3ccccc3N(CCN(C)C)C(=O)[C@@H]2OC(C)=O)cc1 [Diltiazem, (+)-cis-3-Acetoxy-5-(2-dimethylaminoethyl)-2,3-dihydro-2-(4-methoxyphenyl)-1,5-benzothiazapin-4(5H)-one hydrochloride]",genital wart clearing,"genital warts; Example 19: 100 mg/ml ointment, follow up at 5 weeks",complete clearing of the genital warts
same,genital wart clearing,"genital warts; Example 19: 0.1 ml of 100 mg/ml ointment twice daily, person, three weeks",significant clearing
same,plantar wart size,"plantar wart; Example 5: 100 mg/ml ointment on bandage daily, 3 mm wart, person, after about two weeks",dramatically shrunk in size
same,plantar wart outcome,"plantar wart; Example 5: 100 mg/ml ointment on bandage daily, person, six weeks",not detected
same,plantar wart recurrence,"plantar wart; Example 5: person, reassessed after 3 months",no evidence of recurrence of the plantar wart
same,skin tags remaining,"skin tag; Example 9: 100 mg/ml ointment 1-2 times per day, multiple neck skin tags, person, one month",only a few small skin tags remaining
same,skin tag outcome,"skin tag; Example 9: 100 mg/ml ointment off and on, person, after 3 months",completely cleared
same,callous thickness,"callouses; Example 6: 100 mg/ml ointment 2-3 times per day, left foot only (right foot control unchanged), person, three weeks",dramatic reduction in the thickness of the callous
same,psoriatic plaque clearing,"psoriatic plaques; Example 11: 100 mg/ml ointment, left leg",significant clearing
same,keloid appearance,"keloid [1]; person, after 1 week",noticeable softening
same,keloid appearance,keloid [1]; after 2 weeks,noticeable flattening and continued softening
same,keloid appearance,keloid [1]; by six weeks,flattened to the level of the adjoining skin
same,keloid relapse,keloid [1],no relapse of the initial cosmetic improvement
same,pain associated with wearing shoes,"corn; Example 7: 100 mg/ml ointment 2-3 times per day, one month",significant reduction in pain
same,corn thickness,"corn; Example 7: 100 mg/ml ointment 2-3 times per day, second toe, one month",noticeable reduction in the thickness of the corn
same,corn outcome,"corn; Example 7: 100 mg/ml ointment off and on, after 6 months",the corn had dissappeared
same,new keloid formation at FUE graft donor sites,keloid [2],no new keloid formation
"CCOC(=O)C1=C(C)NC(C)=C(C(=O)OC)C1c1cccc(Cl)c1Cl (stereo not drawn) [Felodipine, Ethyl methyl 4-(2,3-dichlorophenyl)-1,4-dihydro-2,6-dimethylpyridine-3,5-dicarboxylate]",pain when running and playing tennis,"callouses; Example 14: 100 mg/ml ointment impregnated bandage 1-2 times per day, left foot, after 3 weeks",pain free on both sides
same,psoriatic plaque clearing,"psoriatic plaques; Example 11: Topical ointment 100 mg/ml, left hand and wrist",significant clearing
same,keloid appearance,"keloid [1]; person, after 1 week",noticeable softening
same,keloid appearance,keloid [1]; after 2 weeks,noticeable flattening and continued softening
same,keloid appearance,keloid [1]; by six weeks,flattened to the level of the adjoining skin
same,keloid relapse,keloid [1],no relapse of the initial cosmetic improvement
same,new keloid formation at FUE graft donor sites,keloid [2],no new keloid formation
"CN1CCN(CCCN2c3ccccc3Sc3ccc(C(F)(F)F)cc32)CC1.Cl.Cl [Trifluoperazine, 10-[3-(4-Methylpiperazin-1-yl)propyl]-2-trifluoromethyl-phenothiazine dihydrochloride]",genital wart clearing,"genital warts; Example 18: 0.1 ml Topical Gel 30 mg/ml twice daily, person, three weeks",significant clearing
same,genital wart clearing,genital warts; [4],complete clearing
same,plantar wart clearing,"plantar wart; Example 13: 0.1 ml Topical Gel 30 mg/ml twice daily, person, three weeks",significant clearing
same,irritation or erythema around the lesion,plantar wart; [5],no irritation or erythema
same,pain on walking and weight bearing,plantar wart; [5],weight bearing without pain
same,plantar wart outcome,"plantar wart; Example 13: Topical Gel 30 mg/ml, stopped for the past two weeks, six weeks follow up",the wart was no longer visible
same,plantar wart recurrence,"plantar wart; Example 13: gel not used for over 3 months, seen at 4 months",no recurrence of the wart
same,skin tag clearing,"skin tag; Example 18: 0.1 ml Topical Gel 30 mg/ml twice daily, right axillary area, three weeks",significant clearing
same,skin tag clearing,skin tag; [4],complete clearing
same,callous softness and thickness,"callouses; Example 14: 30 mg/ml Gel impregnated bandage 1-2 times per day, right foot, person, within one week",a softening and a reduction in the thickness of the callous
same,pain or disability,"callouses; Example 14: 30 mg/ml Gel impregnated bandage, right foot (untreated left side still painful), after two weeks",no longer having any pain or disability
same,callous thickness,"callouses; Example 14: 30 mg/ml Gel impregnated bandage, right foot, after two weeks",had thinned
same,pain while playing tennis,"callouses; Example 14: 30 mg/ml Gel impregnated bandage, right foot, within one week",reduced pain while playing tennis
COc1cc2c(c(OC)c1OC)-c1ccc(OC)c(=O)cc1[C@@H](NC(C)=O)CC2 [colchicine],block of outwardly-rectifying chloride channel,[3],blocked
COc1cccc2c1C(=O)c1c(O)c3c(c(O)c1C2=O)C[C@@](O)(C(C)=O)C[C@@H]3O[C@H]1C[C@H](N)[C@H](O)[C@H](C)O1 [daunorubicin],transport of permanently charged amphiphilic cations,P-glycoprotein,inhibited
same,block of outwardly-rectifying chloride channel,[3],blocked
C=C[C@H]1C[N@@]2CC[C@H]1C[C@@H]2[C@@H](O)c1ccnc2ccc(OC)cc12 [quinidine],transport of permanently charged amphiphilic cations,P-glycoprotein,inhibited
CC[C@]1(O)C[C@@H]2CN(CCc3c([nH]c4ccccc34)[C@@](C(=O)OC)(c3cc4c(cc3OC)N(C)[C@H]3[C@@](O)(C(=O)OC)[C@H](OC(C)=O)[C@]5(CC)C=CCN6CC[C@]43[C@@H]65)C2)C1 [vinblastine],block of outwardly-rectifying chloride channel,[3],blocked
